Measured values taken from paper PMC11527646, “Pharmacological blockade of the mast cell MRGPRX2 receptor supports investigation of its relevance in skin disorders” (Frontiers in Immunology, 2024).

Columns and labels:
[1] = molecular target: T1, monkey MRGPRX2 (Rhesus macaques) (Macaca mulatta, UniProt Q4QXU5); assay: Calcium mobilization in BacMam-transduced U2OS cells; assay type: cell-based; conditions: for Antagonist activity: likely due to receptor desensitization upon activation and not real antagonism
T1 construct: expressed in transfected cells; host or cells: U2OS transduced with BacMam virus
T1 sequence (Q4QXU5 whole entry): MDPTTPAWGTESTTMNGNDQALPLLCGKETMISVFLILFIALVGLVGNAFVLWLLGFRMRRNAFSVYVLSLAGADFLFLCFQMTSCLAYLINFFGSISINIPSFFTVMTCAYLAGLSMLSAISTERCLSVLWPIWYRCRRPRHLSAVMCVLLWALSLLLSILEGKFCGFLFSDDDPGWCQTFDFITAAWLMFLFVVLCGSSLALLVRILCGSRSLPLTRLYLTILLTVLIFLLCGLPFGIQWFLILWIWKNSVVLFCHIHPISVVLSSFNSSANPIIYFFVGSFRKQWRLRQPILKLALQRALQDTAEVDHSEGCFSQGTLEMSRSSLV
Experimental: (§1) Cell culture reagents were purchased from Thermo Fisher Scientific unless otherwise stated. The LAD2 human mast cell line was in-licensed from National Institutes of Health (NIH) and routinely cultured in StemPro™-34 SFM with nutrient supplement, 1× GlutaMax™, and recombinant human SCF (100 ng/mL). HEK293-MRGPRX2/Gα15 cells were cultured in DMEM containing 10% FBS. The parental U2OS cells were culture in DMEM/F-12 containing 10% FBS. BacMam virus containing human MRGPRX2 gene or animal orthologs [mouse Mrgprb2 (Gene ID: 243979), rat Mrgprb3 (Gene ID: 691194), dog MRGPRX2 (Gene ID: 102125889), cynomolgus monkey MRGPRX2 (Gene ID: 692078), and rhesus monkey MRGPRX2] were used to transduce U2OS cells for transient expression.
(§2) Supplemental Table 1: Compound A and Compound B are human MRGPRX2 selective antagonists. Antagonist and agonist activities of the two compounds were determined in calcium mobilization assays for human MRGPRX2 and its animal orthologs from various species. The activities were measured in […] (Molecular Devices) instrument using U2OS cells transduced with BacMam virus for transient expression of the relevant receptors. Data are presented as mean ± SEM when applicable.
(§3) Compound A and Compound B up to the highest concentration (100 µM) tested. In the antagonist […]
(§4) Compound A and B, respectively. […]
(§5) MRGPRX2 and Gα15 proteins (Fig. 1). On monkey MRGPRX2 receptors (both Cynomolgus […]
(§6) receptor desensitization upon activation and not real antagonism. […]

[2] = molecular target: T2, monkey MRGPRX2 (Cynomolgus macaques) (Macaca fascicularis, UniProt Q5U9D9); assay: as above; assay type: cell-based; conditions: for Antagonist activity: likely due to receptor desensitization upon activation and not real antagonism
T2 construct: expressed in transfected cells; host or cells: U2OS transduced with BacMam virus
T2 sequence (Q5U9D9 1-330): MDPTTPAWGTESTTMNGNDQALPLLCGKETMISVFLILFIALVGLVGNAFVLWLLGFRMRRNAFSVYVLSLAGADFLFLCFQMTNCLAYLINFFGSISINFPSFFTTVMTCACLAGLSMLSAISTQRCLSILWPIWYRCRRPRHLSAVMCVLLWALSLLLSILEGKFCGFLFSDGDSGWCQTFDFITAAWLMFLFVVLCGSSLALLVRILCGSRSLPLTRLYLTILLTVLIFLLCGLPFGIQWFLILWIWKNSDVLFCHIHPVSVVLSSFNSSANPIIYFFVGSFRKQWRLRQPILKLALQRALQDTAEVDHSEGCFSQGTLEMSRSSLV
Experimental: as §1, §2, §3, §4, §5, §6

MRGPRX2 [3] = molecular target: T3, MRGPRX2 (Homo sapiens, UniProt Q96LB1); assay: Ca2+ mobilization assay (FLIPR TETRA) in HEK293-MRGPRX2/Gα15 cells; assay type: cell-based; design: expressed in transfected cells; conditions: for EC50: agonist mode, highest concentration tested 30 μM, read-out: Activation of Ca2+ Mobilization EC50
T3 sequence (Q96LB1 1-330): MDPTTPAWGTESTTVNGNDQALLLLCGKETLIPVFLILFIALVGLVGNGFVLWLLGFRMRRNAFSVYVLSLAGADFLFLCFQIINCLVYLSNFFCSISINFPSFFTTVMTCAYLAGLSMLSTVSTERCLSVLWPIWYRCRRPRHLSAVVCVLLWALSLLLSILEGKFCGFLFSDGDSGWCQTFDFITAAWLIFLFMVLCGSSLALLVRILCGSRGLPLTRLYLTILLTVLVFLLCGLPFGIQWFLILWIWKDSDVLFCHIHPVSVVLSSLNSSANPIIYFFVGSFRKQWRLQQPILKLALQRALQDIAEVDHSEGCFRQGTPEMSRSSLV
Experimental: A Ca^2+ mobilization assay was used to screen for small-molecule compounds with agonist or antagonist activity against human MRGPRX2 using HEK293-MRGPRX2/Gα15 cells. Two million small-molecule compounds in GSK collection were screened at single concentration of 10 μM on FLIPR^TETRA (Molecular Devices) instruments in dual detection mode for both activation and inhibition activities. Cortistatin 14 at approximately EC80 concentration was used as the activation ligand for the inhibition phase of the high-throughput screening. Compounds of interest were followed up and characterized in concentration response curves to determine their mode of activity, potency, and selectivity.
Figure 1 Identification of two structurally distinct MRGPRX2 antagonists: Compound (A) and Compound (B). Calcium mobilization assays were performed in FLIPR^TETRA (Molecular Devices) with two novel MRGPRX2 antagonists using HEK293 cells overexpressing MRGPRX2 and Gα15 proteins. […] Dose-dependent inhibition (A) of Cortistatin 14–mediated MRGPRX2 activation was measured, and antagonist potencies (B) are presented as mean ± SEM of 66 or 22 independent experiments for Compound A and Compound B, respectively.

MRGPRX2 [4] = molecular target: T3, MRGPRX2; assay: Calcium mobilization (FLIPR TETRA) in BacMam-transduced U2OS cells; assay type: cell-based; design: expressed in transfected cells; host or cells: U2OS transduced with BacMam virus; Agonist activity: dose or concentration left out as unconfirmed; conditions: for Agonist activity: up to the highest concentration tested
Experimental: as §1, §2, §3, §4

[5] = tested on: ion channel and enzyme targets; assay: In vitro assays of the human safety prediction panel; conditions: data not shown
Text: Among them, the NK1 receptor with which SP is the canonical and high-affinity endogenous ligand.

MRGPRX2 [6] = molecular target: T3, MRGPRX2; assay: Human ex vivo skin microdialysis, Substance P-stimulated histamine release; assay type: cell-based; conditions: Substance P 50 μM; three donors
Experimental: Microdialysis probes with a 3,000-kDa molecular weight cutoff (EP Medical, Copenhagen, Denmark) were primed for 1 h using a basal perfusate consisting of 0.1% human serum albumin in piperazine-N,N′-bis(2-ethanesulfonic acid) (PIPES) buffer to minimize non-specific adsorption to probe components.
Skin specimens measuring approximately 4 cm × 14 cm were excised from the parent skin sample, and subcutaneous fat was removed mechanically. The skin specimens were fixated on Styrofoam and guide cannulas (21G) were inserted intradermally at least 1 cm apart and ≥ 1 cm from the edge of the skin specimen. Ten probes were introduced into each skin specimen by means of the guide cannulas with an intradermal probe span of 20 mm. Probes were perfused at a flow rate of 3.0 μL/min (used throughout the experiment) for 30 min using basal perfusate in order to remove any unspecific histamine release caused by insertion trauma.
Next, the dialysate was collected for 10 min to assess basal skin histamine levels (“basal”). The probes were then switched to perfusion with a perfusate containing antagonists at different concentrations for 60 min to pre-treat the skin specimens and evaluate potential off-target effects, which could present as histamine release caused by antagonist itself (“pre-treatment”). […] Histamine in the dialysates was quantified as described above. […]

MRGPRX1 = molecular target: T4, MRGPRX1 (Homo sapiens, UniProt Q96LB2); assay: GPCR selectivity cellular assay; assay type: cell-based; conditions: for EC50: Agonism, read-out: Agonist Activity (EC50); for IC50: Antagonism, read-out: Antagonist Activity (IC50)
T4 construct: expressed in transfected cells
T4 sequence (Q96LB2 whole entry): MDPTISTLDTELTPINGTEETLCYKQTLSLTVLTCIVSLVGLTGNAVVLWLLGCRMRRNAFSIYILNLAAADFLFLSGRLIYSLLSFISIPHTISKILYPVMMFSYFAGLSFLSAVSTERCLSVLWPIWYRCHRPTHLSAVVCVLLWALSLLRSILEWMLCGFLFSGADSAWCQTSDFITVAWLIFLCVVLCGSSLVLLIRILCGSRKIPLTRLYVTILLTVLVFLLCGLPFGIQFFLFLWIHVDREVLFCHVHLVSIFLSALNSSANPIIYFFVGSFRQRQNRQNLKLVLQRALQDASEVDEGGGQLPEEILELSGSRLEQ
Experimental: Antagonist and/or agonist activities of the two compounds were determined in cellular assays for 20 human G-protein coupled receptors (GPCR) beside MRGPRX2. Recombinant over-expression systems in mammalian cells were used for all assays listed in this table. […]
reported as ‘>’ the highest compound concentration allowed in that assay. […]
Agonist Activity (EC50 ) or Antagonist Activity (IC50 ), nM

MRGPRX2 [7] = molecular target: T3, MRGPRX2; assay: LAD2 mast cell degranulation (β-hexosaminidase release), MRGPRX2 ligand-mediated; assay type: cell-based; design: human mast cells expressing endogenous MRGPRX2; endogenous in cells; […]; conditions: for IC50: mean ± SEM; for EC50: agonist mode, no mast cell activator, up to 50 μM tested, read-out: Activation of LAD-2 Cells EC50; for Kb: read-out: pA2 (apparent antagonist affinity, Schild analysis) (converted); for Nature of antagonism: vs Substance P concentration response curves
Experimental: Two different in vitro human mast cell systems were studied: (a) a human mast cell line, LAD2, established from a patient with mast cell sarcoma; and (b) mast cells freshly isolated from human skin. MRGPRX2 antagonist IC50 values were determined in the LAD2 mast cell degranulation assay using approximately EC80 concentrations for five different MRGPRX2 activating ligands (see Supplementary Figure 1 ).

[8] = Mast Cell Activator: Compound 48/80 at approx. EC80, read-out: Inhibition of Ligand Mediated LAD-2 Cell Activation and Degranulation IC50

C[C@@H](C(=O)Nc1cnc(Oc2ccc(F)cc2F)cn1)N1CCC(F)(F)[C@@H](c2cc[n+]([O-])cc2)C1 [Compound B]
Agonist activity [1]: weak agonist activities
Antagonist activity [1]: very weak antagonist activities
Agonist activity [2]: weak agonist activities
Antagonist activity [2]: very weak antagonist activities
IC50 (MRGPRX2 [3]; Cortistatin 14 at approx. EC80, mean ± SEM of 66 (Compound A) or 22 (Compound B) experiments, read-out: Inhibition of Cort-14 Mediated MRGPRX2 Activation IC50): 2.9 nM
EC50 (MRGPRX2 [3]): > 30000 nM
IC50 (MRGPRX2 [4]; Cortistatin 14 at approx. EC80, U2OS cells, read-out: Antagonist IC50 against Cortistatin 14): 3.6 nM
Agonist activity (MRGPRX2 [4]): No agonist activity was detected
Activity on ion channel and enzyme targets [5]: inactive
Concentration achieving complete blockade of Substance P response (histamine release) (MRGPRX2 [6]): 30 nM
EC50 (MRGPRX1): > 100000 nM
IC50 (MRGPRX1): > 100000 nM
Effect on Substance P maximal response (MRGPRX2 [7]; 7.6 nM antagonist): dampen SP’s maximal response
Effect on degranulation response to highest Substance P concentration (MRGPRX2 [7]; 20 nM antagonist, Substance P 50 μM): abolish the degranulation response
IC50 (MRGPRX2 [7]; [8]): 4 ± 0.3 nM
IC50 (MRGPRX2 [7]; Mast Cell Activator: Cortistatin-14 at approx. EC80, read-out: Inhibition of Ligand Mediated LAD-2 Cell Activation and Degranulation IC50): 1 nM
IC50 (MRGPRX2 [7]; Mast Cell Activator: PACAP-27 at approx. EC80, read-out: Inhibition of Ligand Mediated LAD-2 Cell Activation and Degranulation IC50): 1.8 ± 0.1 nM
IC50 (MRGPRX2 [7]; Mast Cell Activator: PAMP-12 at approx. EC80, read-out: Inhibition of Ligand Mediated LAD-2 Cell Activation and Degranulation IC50): 2.6 ± 0.1 nM
IC50 (MRGPRX2 [7]; Mast Cell Activator: Substance P (1 μM, approx. EC80), read-out: Inhibition of Ligand Mediated LAD-2 Cell Activation and Degranulation IC50): 1.8 ± 0.1 nM
EC50 (MRGPRX2 [7]): > 50000 nM
Kb (MRGPRX2 [7]): 0.891 nM
Nature of antagonism (MRGPRX2 [7]): insurmountable

CC1(C)C(C(=O)Nc2ccccn2)C1(C)C [Compound A]
Agonist activity [1]: weak agonist activities
Antagonist activity [1]: very weak antagonist activities
Agonist activity [2]: weak agonist activities
Antagonist activity [2]: very weak antagonist activities
IC50 (MRGPRX2 [3]): 50 nM
EC50 (MRGPRX2 [3]): > 30000 nM
IC50 (MRGPRX2 [4]): 44.6 nM
Agonist activity (MRGPRX2 [4]): No agonist activity was detected
Activity on ion channel and enzyme targets [5]: inactive
Concentration achieving complete blockade of Substance P response (histamine release) (MRGPRX2 [6]): 3000 nM
EC50 (MRGPRX1): > 100000 nM
IC50 (MRGPRX1): > 100000 nM
IC50 (MRGPRX2 [7]; Inhibition of Ligand Mediated LAD-2 Cell Activation and Degranulation IC50, Mast Cell Activator: Cortistatin-14 at approx. EC80): 22.8 nM
IC50 (MRGPRX2 [7]; Inhibition of Ligand Mediated LAD-2 Cell Activation and Degranulation IC50, Mast Cell Activator: PACAP-27 at approx. EC80): 61.2 ± 14.3 nM
IC50 (MRGPRX2 [7]; Inhibition of Ligand Mediated LAD-2 Cell Activation and Degranulation IC50, Mast Cell Activator: PAMP-12 at approx. EC80): 63.3 ± 6.2 nM
IC50 (MRGPRX2 [7]; Inhibition of Ligand Mediated LAD-2 Cell Activation and Degranulation IC50, Mast Cell Activator: Substance P (1 μM, approx. EC80)): 32.4 nM
IC50 (MRGPRX2 [7]; [8]): 232 ± 26 nM
EC50 (MRGPRX2 [7]): > 50000 nM
Kb (MRGPRX2 [7]): 25.7 nM
Nature of antagonism (MRGPRX2 [7]): partly surmountable
